From US20050169883A1, “Preblocking with non-ha gags increases effectiveness of ha conjugated anticancer agents” (priority 2002, published 2005)

Tests used:
[1] = test system: SK-OV-3 human ovarian cancer cells; test: In vitro cytotoxicity, MTT dye uptake; type: cell-based; conditions: 72 h, SK-OV-3 cells, 3 days incubation, DOX equivalent
Description: (§1) HBL-100, a human breast cancer cell-line, was maintained in culture in high glucose D-MEM (Dulbecco's Modified Eagle Medium), which was supplemented with 10% γ-irradiated fetal bovine serum (FBS) and 1% sodium pyruvate; SK-OV-3, a human ovarian cancer cell-line was cultured in D-MEM/F12+10% FBS; HCT-116, a colon tumor cell-line, was maintained in culture in α-MEM (Minimal Essential Medium, Eagle)+10% FBS. 4T1 mouse breast cancer cells and TSU human bladder cancer cells were cultured with 10% calf serum-90% Dulbecco's modified Eagle's medium (DMEM) at 37° C. in 5% CO2 incubator.
(§2) All ^1H NMR spectral data were obtained using an NR-200 FT-NMR spectrometer at 200 MHz (IBM Instruments Inc.). UV-Vis spectra were recorded on a Hewlett Packard 8453 UV-Vis diode array spectrophotometer (Palo Alto, Calif.). HA was characterized by gel permeation chromatography (GPC) was on the following system: Waters 515 HPLC pump, Waters 410 differential refractometer, and Waters™ 486 tunable absorbance detector, Waters Ultrahydrogel 250 and 2000 columns (7.8 mm ID×30 cm) (Milford, Mass.) were used for GPC analysis, the eluent was 150 mM pH 6.5 phosphate buffer/MeOH=80:20 (v/v), and the flow rate was 0.5 in L/min. The system was calibrated with HA standards supplied by Dr. O. Wik (Pharmacia). […] Cell viability in cell culture was determined by thiazoyl blue (MTT) dye uptake protocols measured at 540 nm, which was recorded on a BIO-RAD M-450 microplate reader (Hercules, Calif.). […] Fluorescence images were taken using FITC settings with the 488 nm excitation line and a 522 nm 32 bandpass filter was used to collect the images.
(§3) The cytotoxicity of HA-DOX and HPMA-HA-DOX conjugates against HBL-100, SKOV-3 and HCT-116 cells was determined using a 96-well plate format in quadruplicate with increasing doses range from 0.001-10 mg/mL of DOX equivalent. […] Thus, a 2-μL aliquot of the stock solution was added to each well, and cells were continuously incubated at 37° C., 5% CO2 for 3 days with the test substance, and cell viability was determined using MTT dye uptake at 540 nm. […]

[2] = test system: HCT-116 human colon cancer cells; test: In vitro cytotoxicity, MTT dye uptake; type: cell-based; conditions: 72 h, HCT-116 cells, 3 days incubation, DOX equivalent
Description: as §1, §2, §3

[3] = test system: HBL-100 human breast cancer cells; test: In vitro cytotoxicity, MTT dye uptake; type: cell-based; conditions: 72 h, HBL-100 cells, 3 days incubation, DOX equivalent
Description: as §1, §2, §3

[4] = test system: human prostate cancer cell-line DU-145; test: In vitro cytotoxicity against prostate cancer cell line; type: cell-based; conditions: DU-145 cells, DOX equivalent
Excerpt: The in vitro cytotoxicity of HPMA-HA-DOX with 17% and 36% HA loading against cultured prostate cancer cell line DU-145 was examined. FIG. 8 depicts the in vitro cytotoxicity results of the HPMA-HA-DOX bioconjugates. The cytotoxicity of targeted HPMA-HA-DOX bioconjugates were dramatically higher than non-targeted HPMA-DOX conjugate (Table 2), and 8- to 12-fold higher than the free DOX drug against this prostate cancer cell-line.

4T1 breast cancer cells = test: Spontaneous lymph node metastasis of 4T1 cells injected into foot pad; type: in vivo, mouse; conditions: for Weight of lymph node: s.c. three times a week for three weeks, 4 mg/kg Taxol equivalent
Description: The 4T1 breast cancer cells were injected into foot pat of syngenic BABL/c mice. […] About 0.2 ml of above agents were administrated by subcutaneous (s.c.) injection at the middle of leg three times a week, from where HA-drug could be drained/absorbed into popliteal and inguinal lymph path, in which the spontaneous metastases were expected to take place.
The lymph nodes were carefully dissected out from surrounding fat, measured for the weights and processed for pathology.

[5] = test system: 4T1 mouse breast cancer cells; test: In vivo anti-tumor effect, 4T1 tumor model in BABL/c mice; conditions: 4 mg/kg Taxol or equivalent, i.p. every other day; versus vehicle and Taxol alone
Description: The 4T1 mouse breast cancer cells (10^6/site) were subcutaneously injected into either BABL/c mice and allowed to grow for 2 days for the tumor to be established. […] The injection was carried out every other day for two to four weeks. The tumor sizes were measured twice a week. At the end of experiment, the mice were sacrificed and the tumor were harvested, photographed and weighted.

4T1 tumors = test: Chondroitin sulfate blocking study, survival of mice bearing 4T1 tumors; type: in vivo, mouse; conditions: experiment period of 33 days; ten i.p. injections every other day
Description: This procedure was carried out every other day for 20 days, and mice received a total of ten injections. The mice were recorded for their survival days and the survival rate was calculated.
This procedure was carried out every other day for 20 days, and mice received a total of ten injections. The mice were recorded for their survival during a 33 day experimental period s and the survival rate was calculated.

[6] = test system: HA binding sites in the major organs; test: Chondroitin sulfate pretreatment, organ and tumor up-take of 3H-HA; type: in vivo, mouse
Description: The tumors and organs were collected, weighted, and homogenized with ultrasound to make tissue homogenates. The protein concentration was normalized to 0.1 mg/ml. Then, 300 μl of tissue homogenates were mixed with 2.5 ml of scintillation solution and counted for the radioactivity. […] Twenty-four hours later, the mice were sacrificed and the homogenates of tumors and organs were counted for the radioactivity.
This approach did reduce the HA taken up by liver and increased the amount of HA accumulated in tumors.
One day later, the tumors and organs were collected, weighed, homogenized with ultrasound to make tissue lysate at a protein concentration of 0.1 mg/ml. Then, 300 μl of tissue lysate were mixed with 2.5 ml of scintillation solution and counted for the radioactivity.

TSU cells = test: HA degradation assay; type: cell-based, human; conditions: 48 hours, KM201 200 μg/ml or chloroquine 0.1 mM
Description: (§4) The assay was carried out as described (CBU) with some modification. […] In some wells, the media contained 200 μg/ml of KM201 (a neutralization antibody against CD44) or 0.1 mM of chloroquine (an inhibitor of lysosomal enzymes). The media were collected, which contained some of the released and degraded ^3H-HA. […] The media and the supernatant from cells were centrifuged with Centricon 30 (Amicon, Danvers, Mass.). The un-degraded high MW ^3H-HA was retained in the upper chamber.
(§5) This mixture was then separated by filter membrane with MW cut of 30,000 Dalton.

4T1 cells = test: HA degradation assay; type: cell-based, mouse
Description: as §4, §5
CD44 was examined to determine if it was expressed by 4T1 cells and if it could interact with HA. First, CD44 was detected by Western blotting. […] The binding was specific as it could be inhibited by excess of cold HA (FIG. 14B).

Compound: COc1cccc2c1C(=O)c1c(O)c3c(c(O)c1C2=O)C[C@@](O)(C(=O)CO)C[C@@H]3O[C@H]1C[C@H](N)[C@H](O)[C@H](C)O1 [DOX, Doxorubicin]
- IC50 [1]: 0.92 µM
- IC50 [2]: 0.35 µM
- IC50 [3]: 0.15 µM
- IC50 [4]: 31.5 µM

Compound: CC(=O)O[C@H]1C(=O)[C@@]2(C)[C@H]([C@H](OC(=O)c3ccccc3)[C@]3(O)C[C@H](OC(=O)[C@H](O)[C@@H](NC(=O)c4ccccc4)c4ccccc4)C(C)=C1C3(C)C)[C@]1(OC(C)=O)CO[C@@H]1C[C@@H]2O [Taxol]
- Inhibition ratio (%) (4T1 breast cancer cells; inguinal lymph node metastasis): 31.8%
- Weight of lymph node (4T1 breast cancer cells; inguinal lymph node): 9.00 ± 0.79
- Inhibition ratio (%) (4T1 breast cancer cells; popliteal lymph node metastasis): −1.7%
- Weight of lymph node (4T1 breast cancer cells; popliteal lymph node): 46.70 ± 5.05
- size of 4T1 tumors [5]: did not reduce the size
- survival rate (4T1 tumors): 60%

Compound: chondroitin sulfate
- up-take of HA in the major organs ([6]; chondroitin sulfate i.v. two hours before 3H-HA, 24 hours): reduced their up-take of HA
- 3H-HA in tumors versus untreated mice ([6]; chondroitin sulfate pretreatment): higher
- amount of 3H-HA in the liver versus vehicle alone ([6]; liver monitored for two days): much lower

Compound: CCN(CC)CCCC(C)Nc1ccnc2cc(Cl)ccc12 (stereo not shown) [chloroquine]
- degradation of high MW 3H-HA by cells (TSU cells): reduce the degraded ^3H-HA
- degradation of high MW 3H-HA by cells (4T1 cells; 48 hours, KM201 200 μg/ml or chloroquine 0.1 mM): reduce the degraded ^3H-HA
- CD44 mediated degradation of 3H-HA (4T1 cells; 72 hours): inhibited
